From US20230203045A1, “INHIBITORS OF NEK7 KINASE” (Halia Therapeutics, Inc., priority 2020, published 2023)

tested on: IL-1β release; assay: IL-1β Release Assay; type: cell-based; conditions: Homo sapiens; PMA-differentiated THP-1 cells, 250 ng/mL LPS then 20 μM nigericin; cleaved IL-1β in media; read-out: I1-1β release IC50
Procedure: Approximately 1.5 million THP-1 cells were plated in each well of a 6-well TC plate and incubated with 40 nM PMA in RPMI (10% FBS, 1% Penstrep) for 24 hours. The media was then removed and cells were rested in RPMI (10% FBS, 1% Penstrep) for 24 hours after which time the media was removed and cells were pre-treated for 2 hours with various concentrations of compounds of interest (typically serial 3-fold dilution in RPMI+5% FBS, concentrations ranging from 1 μM to 0.5 nM) in RPMI (5% FBS). The media was again removed and cells were incubated with 250 ng/mL LPS and compounds of interest (concentrations as above) in RMPI (5% FBS) for 2 hours. The media was removed for a last time and cells were incubated with 20 μM nigericin and compounds of interest (concentrations as above) in Opti-MEM for 30 minutes. Cell media was then collected and the amount of cleaved IL-1β was determined using a JESS instrument (Protein Simple) and standard protocols. Cleaved Il-1β antibody was obtained from Cell Signaling (catalogue #83186S) and was used at 1:20 dilution in antibody diluent 2. Protein Simple 1× anti-Rabbit HRP secondary antibody was used along with Protein Simple luminol and peroxide for chemiluminescent detection. Primary antibody incubation time was increased from 30 minutes to 60 minutes.

IC50 [nM]	Structure (SMILES)
51 to 200	CC(C)(C)c1cc(NC(=O)Nc2ccc(-c3nn(C4COC4)c4ncnc(N)c34)cc2F)on1 [Example 12, 1-(4-(4-amino-1-(oxetan-3-yl)-1H-pyrazolo[3,4-d]pyrimidin-3-yl)-2-fluorophenyl)-3-(3-(tert-butyl)isoxazol-5-yl)urea]
< 50	CC(C)(C)c1cc(NC(=O)Nc2ccc(-c3nn(C4CC4)c4ncnc(N)c34)cc2F)on1 [Example 13, 1-(4-(4-amino-1-cyclopropyl-1H-pyrazolo[3,4-d]pyrimidin-3-yl)-2-fluorophenyl)-3-(3-(tert-butyl)isoxazol-5-yl)urea]
< 50	CC(C)(C)c1cc(NC(=O)Nc2ccc(-c3nn(C4CCN(C5COC5)CC4)c4ncnc(N)c34)cc2F)on1 [Example 14, 1-(4-(4-amino-1-(1-(oxetan-3-yl)piperidin-4-yl)-1H-pyrazolo[3,4-d]pyrimidin-3-yl)-2-fluorophenyl)-3-(3-(tert-butyl)isoxazol-5-yl)urea]
< 50	Nc1ncnc2c1c(-c1ccc(NC(=O)Nc3cc(C4(C(F)(F)F)CC4)no3)c(F)c1)nn2C1CC1 [Example 21, 1-(4-(4-amino-1-cyclopropyl-1H-pyrazolo[3,4-d]pyrimidin-3-yl)-2-fluorophenyl)-3-(3-(1-(trifluoromethyl)cyclopropyl)isoxazol-5-yl)urea]
51 to 200	Nc1ncnc2c1c(-c1ccc(NC(=O)Nc3cc(C4(C(F)(F)F)CC4)on3)c(F)c1)nn2C1CC1 [Example 25, 1-(4-(4-amino-1-cyclopropyl-1H-pyrazolo[3,4-d]pyrimidin-3-yl)-2-fluorophenyl)-3-(5-(1-(trifluoromethyl)cyclopropyl)isoxazol-3-yl)urea]
< 50	CC(C)(C)c1cc(NC(=O)Nc2ccc(-c3nn(C4CC4)c4ccnc(N)c34)cc2F)on1 [Example 30, 1-(4-(4-amino-1-cyclopropyl-1H-pyrazolo[4,3-c]pyridin-3-yl)-2-fluorophenyl)-3-(3-(tert-butyl)isoxazol-5-yl)urea]
51 to 200	CC1(c2cc(NC(=O)Nc3ccc(-c4nn(C5CC5)c5ncnc(N)c45)cc3F)on2)CC1 [Example 32, 1-(4-(4-amino-1-cyclopropyl-1H-pyrazolo[3,4-d]pyrimidin-3-yl)-2-fluorophenyl)-3-(3-(1-methylcyclopropyl)isoxazol-5-yl)]
201 to 500	CC(C)(C)c1nnc(NC(=O)Nc2ccc(-c3nn(C4CC4)c4ncnc(N)c34)cc2F)s1 [Example 33, 1-(4-(4-amino-1-cyclopropyl-1H-pyrazolo[3,4-d]pyrimidin-3-yl)-2-fluorophenyl)-3-(5-(tert-butyl)-1,3,4-thiadiazol-2-yl)]
51 to 200	Nc1nccc2c1c(-c1ccc(NC(=O)Nc3cc(C4(C(F)(F)F)CC4)no3)c(F)c1)nn2C1CC1 [Example 45, 1-(4-(4-amino-1-cyclopropyl-1H-pyrazolo[4,3-c]pyridin-3-yl)-2-fluorophenyl)-3-(3-(1-(trifluoromethyl)cyclopropyl)isoxazol-5-yl)urea]

target: T1, full-length recombinant human NEK7 (Homo sapiens, UniProt Q8TDX7); assay: NEK7 Enzymatic Assay; type: biochemical; conditions: casein substrate, [33P]-ATP, 2 hours at room temperature
T1 construct: full-length recombinant human NEK7; GST (N); purchased SignalChem Nab 09-10G; host or cells: Sf9 insect cells (baculovirus)
T1 sequence (Q8TDX7 whole entry): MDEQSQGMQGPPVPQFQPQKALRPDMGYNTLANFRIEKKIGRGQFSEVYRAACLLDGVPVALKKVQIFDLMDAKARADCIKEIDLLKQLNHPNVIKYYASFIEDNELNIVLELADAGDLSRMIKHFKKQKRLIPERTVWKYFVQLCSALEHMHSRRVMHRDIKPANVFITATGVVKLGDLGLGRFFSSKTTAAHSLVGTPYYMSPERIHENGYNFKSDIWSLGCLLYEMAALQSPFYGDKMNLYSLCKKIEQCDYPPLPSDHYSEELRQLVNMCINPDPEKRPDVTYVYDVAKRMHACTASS
Procedure: Casein substrate (from bovine milk, hydrolyzed and partially dephosphorylated mixture of α, β and κ caseins, obtained from Sigma Aldrich, catalogue #C4765, diluted in distilled water to a final concentration of 1 mg/mL) and full-length recombinant human NEK7 (expressed by baculovirus in Sf9 insect cells using a N-terminal GST tag, obtained from SignalChem, catalogue #Nab 09-10G, 0.1 μg/μL) were mixed in assay buffer (20 mM Hepes pH 7.5, 10 mM MgCl2, 1 mM EGTA, 0.02% Brij35, 0.02 mg/ml BSA, 0.1 mM Na3VO4, 2 mM DTT, 1% DMSO). Compounds of interest (serial 3-fold dilution in DMSO from 10 μM to 0.5 nM) or vehicle (1% DMSO) were dispensed into the kinase reaction mixture by Acoustic technology (Echo550; nanoliter range). After incubation at room temperature for 20 minutes, the kinase reaction was initiated by addition of [^33P]-ATP (specific activity 10 μCi/μl) and the mixture was incubated at room temperature for 2 hours. The reaction was then stopped by spotting the reaction mixture on strips of phosphocellulose P81 paper. Following washing, the radioactivity of the P81 paper was measured and kinase activity data were expressed as the percent remaining kinase activity in test samples compared to vehicle reactions. IC50 values and curve fits were obtained using Prism (GraphPad Software).

IC50 [nM]	Structure (SMILES)
> 501	CC(C)(C)c1nnc(NC(=O)Nc2ccc(-c3nn(C4CC4)c4ncnc(N)c34)cc2F)s1 [Example 33, 1-(4-(4-amino-1-cyclopropyl-1H-pyrazolo[3,4-d]pyrimidin-3-yl)-2-fluorophenyl)-3-(5-(tert-butyl)-1,3,4-thiadiazol-2-yl)]
> 501	Cc1cc(-c2nn(C3CC3)c3ncnc(N)c23)ccc1NC(=O)Nc1cc(C2(C(F)(F)F)CC2)on1 [Example 59, 1-(4-(4-amino-1-cyclopropyl-1H-pyrazolo[3,4-d]pyrimidin-3-yl)-2-methylphenyl)-3-(5-(1-(trifluoromethyl)cyclopropyl)isoxazol-3-yl)urea]
< 150	Nc1ncnc2c1c(-c1ccc(NC(=O)Nc3cc(C4(C(F)(F)F)CC4)on3)c(F)c1)nn2C1CC(O)C1 (stereo not shown) [Example 60, 1-(4-(4-amino-1-(3-hydroxycyclobutyl)-1H-pyrazolo[3,4-d]pyrimidin-3-yl)-2-fluorophenyl)-3-(5-(1-(trifluoromethyl)cyclopropyl)isoxazol-3-yl)urea]
> 501	Nc1nccc2c1c(-c1ccc(NC(=O)Nc3cc(C4(C(F)(F)F)CC4)on3)c(F)c1)nn2C1CC1 [Example 61, 1-(4-(4-amino-1-cyclopropyl-1H-pyrazolo[4,3-c]pyridin-3-yl)-2-fluorophenyl)-3-(5-(1-(trifluoromethyl)cyclopropyl)isoxazol-3-yl)urea]
301 to 500	Nc1ncnc2c1c(-c1cc(F)c(NC(=O)Nc3cc(C4(C(F)(F)F)CC4)on3)cc1F)nn2C1CC1 [Example 62, 1-(4-(4-amino-1-cyclopropyl-1H-pyrazolo[3,4-d]pyrimidin-3-yl)-2,5-difluorophenyl)-3-(5-(1-(trifluoromethyl)cyclopropyl)isoxazol-3-yl)urea]
> 501	Nc1ncnc2c1c(-c1ccc(NC(=O)Nc3cc(C4(C(F)(F)F)CC4)on3)c(CO)c1)nn2C1CC1 [Example 63, 1-(4-(4-amino-1-cyclopropyl-1H-pyrazolo[3,4-d]pyrimidin-3-yl)-2-(hydroxymethyl)phenyl)-3-(5-(1-(trifluoromethyl)cyclopropyl)isoxazol-3-yl)urea]
151 to 300	Nc1ncnc2c1c(-c1ccc(NC(=O)Nc3cc(C4(C(F)(F)F)CC4)on3)nc1)nn2C1CC1 [Example 64, 1-(5-(4-amino-1-cyclopropyl-1H-pyrazolo[3,4-d]pyrimidin-3-yl)pyridin-2-yl)-3-(5-(1-(trifluoromethyl)cyclopropyl)isoxazol-3-yl)urea]
151 to 300	CC(C)(O)Cn1nc(-c2ccc(NC(=O)Nc3cc(C4(C(F)(F)F)CC4)no3)c(F)c2)c2c(N)ncnc21 [Example 66, 1-(4-(4-amino-1-(2-hydroxy-2-methylpropyl)-1H-pyrazolo[3,4-d]pyrimidin-3-yl)-2-fluorophenyl)-3-(3-(1-(trifluoromethyl)cyclopropyl)isoxazol-5-yl)urea]
301 to 500	CC(C)(O)Cn1nc(-c2ccc(NC(=O)Nc3cc(C4(C(F)(F)F)CC4)on3)c(F)c2)c2c(N)ncnc21 [Example 67, 1-(4-(4-amino-1-(2-hydroxy-2-methylpropyl)-1H-pyrazolo[3,4-d]pyrimidin-3-yl)-2-fluorophenyl)-3-(5-(1-(trifluoromethyl)cyclopropyl)isoxazol-3-yl)urea]
> 501	CN1CC(n2nc(-c3ccc(NC(=O)Nc4cc(C5(C(F)(F)F)CC5)on4)c(F)c3)c3c(N)ncnc32)C1 [Example 68, 1-(4-(4-amino-1-(1-methylazetidin-3-yl)-1H-pyrazolo[3,4-d]pyrimidin-3-yl)-2-fluorophenyl)-3-(5-(1-(trifluoromethyl)cyclopropyl)isoxazol-3-yl)urea]
